Data published in BindingDB's records for doi:10.1016/0014-2999(96)00122-7 (Synaptic Pharmaceutical, 1996).

Molecular target: 5-hydroxytryptamine receptor 4 (Rattus norvegicus, UniProt Q62758)
Sequence (Q62758 whole entry): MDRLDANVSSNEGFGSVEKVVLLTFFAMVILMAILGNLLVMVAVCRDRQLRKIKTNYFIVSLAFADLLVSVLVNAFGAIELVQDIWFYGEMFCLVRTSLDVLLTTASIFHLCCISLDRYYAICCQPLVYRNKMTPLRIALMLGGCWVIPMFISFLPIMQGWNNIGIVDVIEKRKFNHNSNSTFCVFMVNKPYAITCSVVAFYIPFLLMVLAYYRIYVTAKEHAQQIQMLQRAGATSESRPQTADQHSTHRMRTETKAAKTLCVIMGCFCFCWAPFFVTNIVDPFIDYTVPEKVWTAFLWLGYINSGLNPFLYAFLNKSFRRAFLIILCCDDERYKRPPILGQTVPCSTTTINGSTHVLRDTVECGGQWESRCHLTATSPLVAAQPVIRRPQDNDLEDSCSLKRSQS

SMILES	Ki [nM]
Cn1cc(CCN)c2cc(O)ccc21 [5-HT,omega-N-Me]	263
COc1cc(N)c(Cl)cc1C(=O)NC1CCN2CCCC1C2 (stereo unspecified) [NSC_3035240]	27
CN1C2CCC1CC(OC(=O)c1c[nH]c3ccccc13)C2 (stereo unspecified)	159
NCCc1c[nH]c2ccc(C(N)=O)cc12 [[3H]-5-carboxamidotryptamine]	1000
COc1cc(N)c(Cl)cc1C(=O)NC1CCN(CCCOc2ccc(F)cc2)CC1OC (stereo unspecified) [4-amino-5-chloro-N-(1-(3-(4-fluorophenoxy)propyl)-3-methoxypiperidin-4-yl)-2-methoxybenzamide]	25
COc1ccc2[nH]cc(CCN)c2c1 [tryptamine, 5-Methoxy]	112
